Data set [1] can be described thus: Antifibrotic activity in rat renal mesangial cells assessed as inhibition of TGF-beta1-induced [3H]-proline incorporation into collagen at 30 uM treated 4 hrs before TGF-beta1 addition measured after 44 hrs by liquid scintillation counting. The class given is functional, cell-based.
Data set [2] can be described thus: Antifibrotic activity in rat renal mesangial cells assessed as inhibition of TGF-beta1-induced [3H]-proline incorporation into collagen at 10 uM treated 4 hrs before TGF-beta1 addition measured after 44 hrs by liquid scintillation counting. It is filed as functional, cell-based.
Data set [3] relates to Rattus norvegicus. In words: Reduction of albuminuria in (mRen-2)27 rat streptozotocin-induced diabetic nephropathy model assessed as reduction of albumin level in urine at 400 mg/kg, po qd for 8 weeks administered 8 weeks post-streptozotocin treatment by radioimmunoassay. The class given is functional, organism-based. More on the design: dose 400 mg/kg.
Data set [4] is described as follows: Plasma clearance in Sprague-Dawley rat at 5 mg/kg, iv. The arrangement: dose 5 mg/kg, route intravenous. It is filed as ADME, organism-based.
Data set [5] in a line: AUC (0 to infinity) in Sprague-Dawley rat at 5 mg/kg, iv. The class given is ADME, organism-based. The arrangement: time infinity, dose 5 mg/kg, route intravenous. As to conditions: plasma.
The nature of data set [6]: Drug level in Sprague-Dawley rat urine at 20 mg/kg, po. It is filed as ADME, organism-based. More on the design: dose 20 mg/kg, route oral. To be noted: read-out: Drug uptake.
The nature of data set [7]: Volume of distribution at steady state in Sprague-Dawley rat at 5 mg/kg, iv. More on the design: dose 5 mg/kg, route intravenous. To be noted: in vivo, read-out: Vdss. The class given is ADME, organism-based.
Data set [8] is described as follows: Apparent half life in Sprague-Dawley rat at 5 mg/kg, iv. To be noted: in vivo, read-out: t1/2(app) (converted). It is filed as ADME, organism-based. The arrangement: dose 5 mg/kg, route intravenous.
Data set [9] is described as follows: (§1) Cmax in Sprague-Dawley rat at 20 mg/kg, po. It is filed as ADME, organism-based. More on the design: dose 20 mg/kg, route oral. As to conditions: Sprague-Dawley, in vivo.
Data set [10] can be described thus: (§2) Apparent half life in Sprague-Dawley rat at 20 mg/kg, po. The arrangement: dose 20 mg/kg, route oral. As to conditions: Sprague-Dawley, in vivo. It is filed as ADME, organism-based.
A short description of data set [11]: (§3) Tmax in Sprague-Dawley rat at 20 mg/kg, po. To be noted: Sprague-Dawley, in vivo. More on the design: dose 20 mg/kg, route oral. It is filed as ADME, organism-based.
Data set [12] in a line: Oral bioavailability in Sprague-Dawley rat at 20 mg/kg. It is filed as ADME, organism-based. As to conditions: in vivo.
The nature of data set [13]: (§4) AUC (0 to infinity) in Sprague-Dawley rat at 20 mg/kg, po. To be noted: Sprague-Dawley, plasma. More on the design: dose 20 mg/kg, route oral, time infinity. It is filed as ADME, organism-based, Plasma.
Data set [14] can be described thus: Drug level in Sprague-Dawley rat urine at 5 mg/kg, iv. It is filed as ADME, organism-based. More on the design: dose 5 mg/kg, route intravenous. As to conditions: read-out: Drug uptake.
The test system of the next data set is Liver microsome. In words: Metabolic stability in human liver microsomes at 1 uM after 60 mins by LC/MS analysis in presence of NADPH. It is filed as ADME. As to conditions: 1 h. (Microsomes from liver hold many membrane-bound enzymes, among them those of drug oxidation.)
The subject of data set [15] is Rattus norvegicus. The description is as §1. The class given is ADME, organism-based. More on the design: dose 20 mg/kg, route oral. As to conditions: in vivo.
In data set [16] the test system is Rattus norvegicus. In words: Renal toxicity in Sprague-Dawley rat assessed as effect on serum creatinine level at 50 to 1000 mg/kg, po bid for 2 weeks. The class given is organism-based. More on the design: dose 50-1000 mg/kg, route oral. As to conditions: in vivo, 336 h.
The subject of data set [17] is Rattus norvegicus. The description is as §2. It is filed as ADME, organism-based. More on the design: dose 20 mg/kg, route oral. To be noted: in vivo.
The test system of data set [18] is Rattus norvegicus. The description is as §3. The class given is ADME, organism-based. As to conditions: in vivo. More on the design: dose 20 mg/kg, route oral.
Data set [19] deals with Rattus norvegicus. In words: Hepatotoxicity in Sprague-Dawley rat assessed as effect on serum bilirubin level at 50 to 1000 mg/kg, po bid for 2 weeks. The class given is toxicity, organism-based. To be noted: in vivo, 336 h. More on the design: dose 50-1000 mg/kg, route oral.
Data set [20] deals with Rattus norvegicus. In words: Hepatotoxicity in Sprague-Dawley rat assessed as effect on serum ALT level at 50 to 1000 mg/kg, po bid for 2 weeks. It is filed as toxicity, organism-based. The arrangement: dose 50-1000 mg/kg, route oral. To be noted: in vivo, 336 h.
Data set [21] deals with Rattus norvegicus. In words: Renal toxicity in Sprague-Dawley rat assessed as effect on serum urate level at 50 to 1000 mg/kg, po bid for 2 weeks. The class given is organism-based. More on the design: dose 50-1000 mg/kg, route oral. As to conditions: in vivo, 336 h.
For data set [22], the system named is Rattus norvegicus. In words: Reduction of albuminuria in (mRen-2)27 rat streptozotocin-induced diabetic nephropathy model assessed as reduction of albumin level in urine at 200 mg/kg, po qd for 8 weeks administered 8 weeks post-streptozotocin treatment by radioimmunoassay. The class given is functional, organism-based. More on the design: dose 200 mg/kg.
The test system of data set [23] is Rattus norvegicus. The description is as §4. As to conditions: in vivo. It is filed as ADME, organism-based, Plasma. The arrangement: dose 20 mg/kg, route oral, time infinity.

Active and inactive are the calls of the source. No cut-off for these calls is given here.

Experimental findings from ChEMBL document CHEMBL3091327, “3',4'-Bis-difluoromethoxycinnamoylanthranilate (FT061): an orally-active antifibrotic agent that reduces albuminuria in a rat model of progressive diabetic nephropathy” (Bioorg Med Chem Lett, 2013) are described below.

Broadly, the inhibition is the share of the control response that was lost under treatment. As usually defined, the clearance is a measure of how efficiently the substance is removed, as volume per time. A low value points to a low capacity for elimination. The term AUC(0-inf) denotes the area under the concentration-time curve extrapolated to infinity. Lower therefore signals less exposure. One may read the Cmax as the maximum level reached in the sampled fluid or tissue. The Tmax is the time at which the peak concentration occurs. The term AUC denotes the area under the concentration-time curve, a measure of exposure. Low readings indicate low exposure, high ones high exposure.

As for `O=C(/C=C/c1ccc2c(c1)OC(F)(F)O2)Nc1ccccc1C(=O)O`, in [1], the inhibition is 0%.
As to `O=C(O)c1ccccc1NC(=O)C1CC1c1ccc(OC(F)F)c(OC(F)F)c1` (centres undefined), the inhibition in [2] came to 70%; in [1], 90%.
On to `O=C(/C=C/c1ccc(OC(F)(F)C(F)F)cc1)Nc1ccccc1C(=O)O`, for which the inhibition in [2] amounted to 84%.
In the case of `Nc1ccccc1NC(=O)/C=C/c1ccc(OC(F)F)c(OC(F)F)c1`, the inhibition in [2] came out at 57%; in [1], 79%.
The like results for `COc1ccc(/C=C/C(=O)Nc2ccccc2C(=O)O)cc1OC(F)(F)F` were, in that order, 92% and 100%.
As for `C#CCOc1cc(/C=C/C(=O)Nc2ccccc2C(=O)O)ccc1OC`, the results for the inhibition in data set [2] and in data set [1] were 20% and 55%, respectively.
With `COc1cc(/C=C/C(=O)Nc2ccccc2C(=O)O)cc(OC)c1OC(F)F`, the inhibition in [2] was 24%; in data set [1], 80%.
In the case of `C/C(=C\c1ccc(OC(F)F)c(OC(F)F)c1)C(=O)Nc1ccccc1C(=O)O`, the inhibition in [2] worked out at 100%.
Consider `C/C(=C\C(=O)Nc1ccccc1C(=O)O)c1ccc(OC(F)F)c(OC(F)F)c1`, for which, in data set [2], the inhibition is 100%.
As for `C#CCOc1cc(/C=C/C(=O)Nc2ccccc2C(=O)O)ccc1OC(F)F`, the inhibition in data set [2] came out at 73%; in data set [1] it was 100%.
Take `COc1ccc(/C=C/C(=O)Nc2ccccc2C(=O)O)cc1OC` [TRANILAST]: in the data set with Rattus norvegicus [3], the outcome was Active. For the same compound, the clearance in data set [4] turned out to be 2 mL/min/kg. Moreover, the results for the AUC(0-inf) in [5] and in data set [13] were 110 µM·h and 652 µM·h, respectively. For the same compound, the dose excreted stood at 1.9% in data set [6] and 2.4% in data set [14]. In addition, the Vd in [7] was 0.3 L/kg. Also, the results for the half-life in data set [8] and in data set [10] were 3.1 h and 3.3 h, respectively. The same compound came in with a Cmax in data set [9] of 118 µM. Moreover, in data set [11], the Tmax was 1.75 h. Moreover, the inhibition in data set [2] turned out to be 15%; in data set [1], 40%. The bioavailability in data set [12] stood at 125%.
`O=C(/C=C/c1ccc(OC(F)(F)F)c(F)c1)Nc1ccccc1C(=O)O`: in [2], the inhibition was 55%.
On to `O=C(/C=C/c1ccc(OC(F)F)c(OC(F)F)c1)Nc1ccccc1C(=O)O`, for which the clearance in data set [4] was 0.2 mL/min/kg. The AUC(0-inf) in [5] is 894 µM·h. Moreover, the dose excreted in data set [6] amounted to 1.7%; in data set [14], 3.3%. Further, in data set [7], the Vd was determined as 0.1 L/kg. In addition, the half-life in data set [8] is 7.8 h. Also, the Stability result in the data set on Liver microsome is listed as “Stable”. This compound also came in with a Cmax with Rattus norvegicus [15] of 200 µM. In addition, the Activity result with Rattus norvegicus [16], in the data set on Rattus norvegicus [19], with Rattus norvegicus [20] and in the data set with Rattus norvegicus [21] was “Non-toxic” throughout. Moreover, the t1/2(app) in the data set on Rattus norvegicus [17] was 5.4 h. In addition, the Tmax in the data set with Rattus norvegicus [18] amounted to 2.5 h. Further, the values for the inhibition in data set [2] and in data set [1] were 60% and 100%, respectively. In addition, the bioavailability in data set [12] was 73%. The result in the data set on Rattus norvegicus [22] was Active. The AUC in the data set on Rattus norvegicus [23] stood at 2691 µM·h.
`COc1cc(/C=C/C(=O)Nc2ccccc2C(=O)O)ccc1OC(F)F`: the inhibition in data set [2] was 20%; in data set [1], 70%.
As for `O=S(=O)(/C=C/c1ccc(OC(F)F)c(OC(F)F)c1)Nc1ccccc1`, the inhibition in [2] turned out to be 0%.
For `O=C(/C=C/c1ccc(OC(F)F)c(OC(F)F)c1)Nc1ccc(Br)cc1C(=O)O`, the inhibition in data set [2] was 100%.
